Reference: article PMC5218480 (PLoS ONE, 2017)

Tested on: MV-4-11 cells
Assay: Gene expression microarray analysis (Affymetrix PrimeView) and GSEA
Type: cell-based, human
Design: RFU PODN (11730768_x_at) / Fold change /veh PODN (11730768_x_at) / RFU LINC00158 (11744669_a_at) / Fold change /veh LINC00158 (11744669_a_at) / RFU DUSP10 (11751237_a_at) / Fold change /veh DUSP10 (11751237_a_at) / RFU ID3 (11757404_x_at) / Fold change /veh ID3 (11757404_x_at) / RFU PLEKHG5 (11737974_s_at) / Fold change /veh PLEKHG5 (11737974_s_at) / RFU LRRC4B (11730491_at) / Fold change /veh LRRC4B (11730491_at) / RFU GIMAP4 (11747438_a_at) / Fold change /veh GIMAP4 (11747438_a_at) / RFU KRT8 (11758183_x_at) / Fold change /veh KRT8 (11758183_x_at) / RFU CNN1 (11734310_a_at) / Fold change /veh CNN1 (11734310_a_at) / RFU VPS37D (11726825_at) / Fold change /veh VPS37D (11726825_at) / RFU C10orf10 (11716522_x_at) / Fold change /veh C10orf10 (11716522_x_at) / RFU KIR2DL2 /// KIR2DL4 /// KIR2DL5A /// KIR2DL5B /// KIR2DS1 /// KIR2DS2 /// KIR2DS3 /// KIR2DS4 /// KIR3DL3 /// KIR3DL3 /// KIR3DS1 (11738374_at) / Fold change /veh KIR2DL2 /// KIR2DL4 /// KIR2DL5A /// KIR2DL5B /// KIR2DS1 /// KIR2DS2 /// KIR2DS3 /// KIR2DS4 /// KIR3DL3 /// KIR3DL3 /// KIR3DS1 (11738374_at) / RFU C1QL1 (11718748_at) / Fold change /veh C1QL1 (11718748_at) / RFU TMPRSS4 (11747572_a_at) / Fold change /veh TMPRSS4 (11747572_a_at) / RFU HAMP (11756126_x_at) / Fold change /veh HAMP (11756126_x_at) / RFU RNFT2 (11725882_a_at) / Fold change /veh RNFT2 (11725882_a_at) / RFU NR4A2 (11747474_a_at) / Fold change /veh NR4A2 (11747474_a_at) / RFU ABCC12 (11746883_a_at) / Fold change /veh ABCC12 (11746883_a_at) / RFU TMEM136 (11760407_x_at) / Fold change /veh TMEM136 (11760407_x_at) / RFU CLDN22 /// WWC2 (11732394_at) / Fold change /veh CLDN22 /// WWC2 (11732394_at) / RFU HLA-DPB1 (11760878_x_at) / Fold change /veh HLA-DPB1 (11760878_x_at) / RFU SPINT1 (11716480_a_at) / Fold change /veh SPINT1 (11716480_a_at) / RFU GAP43 (11754022_s_at) / Fold change /veh GAP43 (11754022_s_at) / RFU A4GNT (11735810_at) / Fold change /veh A4GNT (11735810_at) / RFU PRB3 (11715151_x_at) / Fold change /veh PRB3 (11715151_x_at) / RFU TUBB4B (11761932_at) / Fold change /veh TUBB4B (11761932_at) / RFU CAPN14 (11732068_a_at) / Fold change /veh CAPN14 (11732068_a_at) / RFU TMCC2 (11721928_a_at) / Fold change /veh TMCC2 (11721928_a_at) / RFU IRGQ (11745062_a_at) / Fold change /veh IRGQ (11745062_a_at) / RFU FAM174B (11720279_a_at) / Fold change /veh FAM174B (11720279_a_at) / RFU TMPRSS4 (11748680_a_at) / Fold change /veh TMPRSS4 (11748680_a_at) / RFU FAM212B (11763350_a_at) / Fold change /veh FAM212B (11763350_a_at) / RFU PLEKHG5 (11743358_a_at) / Fold change /veh PLEKHG5 (11743358_a_at) / RFU ZSCAN30 (11745921_a_at) / Fold change /veh ZSCAN30 (11745921_a_at) / RFU CMKLR1 (11741424_a_at) / Fold change /veh CMKLR1 (11741424_a_at) / RFU LOC101060620 /// MAPK8IP1 (11723275_at) / Fold change /veh LOC101060620 /// MAPK8IP1 (11723275_at) / RFU SPTSSB (11747773_x_at) / Fold change /veh SPTSSB (11747773_x_at) / RFU PRSS12 (11739890_at) / Fold change /veh PRSS12 (11739890_at) / RFU BIN1 (11741810_x_at) / Fold change /veh BIN1 (11741810_x_at) / RFU WNT11 (11732464_a_at) / Fold change /veh WNT11 (11732464_a_at) / RFU C10orf10 (11716521_a_at) / Fold change /veh C10orf10 (11716521_a_at) / RFU C5orf56 (11738089_at) / Fold change /veh C5orf56 (11738089_at) / RFU CYB561 (11721691_x_at) / Fold change /veh CYB561 (11721691_x_at) / RFU ANKRD19P (11752326_a_at) / Fold change /veh ANKRD19P (11752326_a_at) / RFU OR2T12 /// OR2T33 /// OR2T8 (11738714_s_at) / Fold change /veh OR2T12 /// OR2T33 /// OR2T8 (11738714_s_at) / RFU VCAN (11748164_a_at) / Fold change /veh VCAN (11748164_a_at) / RFU JSRP1 (11732532_at) / Fold change /veh JSRP1 (11732532_at) / RFU KRTAP10-11 (11738290_x_at) / Fold change /veh KRTAP10-11 (11738290_x_at) / RFU MYO3A (11730013_a_at) / Fold change /veh MYO3A (11730013_a_at) / RFU EBF3 (11725865_a_at) / Fold change /veh EBF3 (11725865_a_at) / RFU CAMK2N1 (11719241_x_at) / Fold change /veh CAMK2N1 (11719241_x_at) / RFU C5orf56 (11738088_a_at) / Fold change /veh C5orf56 (11738088_a_at) / RFU OLFML3 (11715873_a_at) / Fold change /veh OLFML3 (11715873_a_at) / RFU LOC100653217 /// NTM (11731650_a_at) / Fold change /veh LOC100653217 /// NTM (11731650_a_at) / RFU MAPK11 (11762145_a_at) / Fold change /veh MAPK11 (11762145_a_at) / RFU FIZ1 (11724087_x_at) / Fold change /veh FIZ1 (11724087_x_at) / RFU OASL (11726364_x_at) / Fold change /veh OASL (11726364_x_at) / RFU SOX15 (11748057_x_at) / Fold change /veh SOX15 (11748057_x_at) / RFU CD79A (11719716_a_at) / Fold change /veh CD79A (11719716_a_at) / RFU HIST1H1D (11736915_at) / Fold change /veh HIST1H1D (11736915_at) / RFU CASKIN2 (11723855_a_at) / Fold change /veh CASKIN2 (11723855_a_at) / RFU LOC730098 (11760151_x_at) / Fold change /veh LOC730098 (11760151_x_at) / RFU OR4N2 (11742367_at) / Fold change /veh OR4N2 (11742367_at) / RFU PRRT2 (11749266_a_at) / Fold change /veh PRRT2 (11749266_a_at) / RFU SNX32 (11753110_a_at) / Fold change /veh SNX32 (11753110_a_at) / RFU CDHR5 (11726645_a_at) / Fold change /veh CDHR5 (11726645_a_at) / RFU RCAN1 (11760418_a_at) / Fold change /veh RCAN1 (11760418_a_at) / RFU FAM167A (11723789_a_at) / Fold change /veh FAM167A (11723789_a_at) / RFU FAM26E (11764081_at) / Fold change /veh FAM26E (11764081_at) / RFU ISYNA1 (11749810_s_at) / Fold change /veh ISYNA1 (11749810_s_at) / RFU ACY1 (11761880_at) / Fold change /veh ACY1 (11761880_at) / RFU 11764098_at / Fold change /veh 11764098_at / RFU SAMD14 (11745864_x_at) / Fold change /veh SAMD14 (11745864_x_at) / RFU NPB (11741838_a_at) / Fold change /veh NPB (11741838_a_at) / RFU TMPRSS6 (11731388_a_at) / Fold change /veh TMPRSS6 (11731388_a_at) / RFU KRTAP10-2 (11738614_at) / Fold change /veh KRTAP10-2 (11738614_at) / RFU ARHGAP8 /// PRR5-ARHGAP8 (11727945_x_at) / Fold change /veh ARHGAP8 /// PRR5-ARHGAP8 (11727945_x_at) / RFU KRTAP5-7 /// NADSYN1 (11734609_at) / Fold change /veh KRTAP5-7 /// NADSYN1 (11734609_at) / RFU RASL12 (11751679_a_at) / Fold change /veh RASL12 (11751679_a_at) / RFU CDKN2B (11736163_a_at) / Fold change /veh CDKN2B (11736163_a_at) / RFU PRF1 (11729649_at) / Fold change /veh PRF1 (11729649_at) / RFU, ZNF638 /// ZNF638-IT1 / Fold change vs veh, ZNF638 /// ZNF638-IT1 / RFU, PANK3 / Fold change vs veh, PANK3 / RFU, SH3YL1 / Fold change vs veh, SH3YL1 / RFU, ZEB2 / Fold change vs veh, ZEB2 / RFU, NRIP1 / Fold change vs veh, NRIP1 / RFU, PTTG1IP / Fold change vs veh, PTTG1IP / RFU, CAPN2 / Fold change vs veh, CAPN2 / RFU, MED14 / Fold change vs veh, MED14 / RFU, SNORA58 / Fold change vs veh, SNORA58 / RFU, C1orf63 / Fold change vs veh, C1orf63 / RFU, LRRFIP1 / Fold change vs veh, LRRFIP1 / RFU, NDUFAF7 / Fold change vs veh, NDUFAF7 / RFU, SLC12A2 / Fold change vs veh, SLC12A2 / RFU, IBTK / Fold change vs veh, IBTK / RFU, ESF1 / Fold change vs veh, ESF1 / Fold change vs veh, TMEM50B / RFU, TAOK1 / Fold change vs veh, TAOK1 / RFU, ACBD3 / Fold change vs veh, ACBD3 / RFU, TMA16 / Fold change vs veh, TMA16 / RFU, RWDD3 / Fold change vs veh, RWDD3 / RFU, BCAT1 / Fold change vs veh, BCAT1 / RFU, EDEM3 / Fold change vs veh, EDEM3 / RFU, TMEM33 / Fold change vs veh, TMEM33 / RFU, WDR75 / Fold change vs veh, WDR75 / RFU, AHCTF1 / Fold change vs veh, AHCTF1 / RFU, TFRC / Fold change vs veh, TFRC / RFU, ZDHHC17 / Fold change vs veh, ZDHHC17 / RFU, NOM1 / Fold change vs veh, NOM1 / RFU, ARL8B / Fold change vs veh, ARL8B / RFU, ZBTB11 / Fold change vs veh, ZBTB11 / RFU, TAMM41 / Fold change vs veh, TAMM41 / RFU, KIAA1704 /// LOC100996395 / Fold change vs veh, KIAA1704 /// LOC100996395 / RFU, ING1 / Fold change vs veh, ING1 / RFU, TRMT61B / Fold change vs veh, TRMT61B / RFU, FUBP3 / Fold change vs veh, FUBP3 / RFU, TP53 / Fold change vs veh, TP53 / RFU, TNKS2 / Fold change vs veh, TNKS2 / RFU, ZFP14 / Fold change vs veh, ZFP14 / RFU, ACTR2 / Fold change vs veh, ACTR2 / RFU, PPP3R1 / Fold change vs veh, PPP3R1 / RFU, PIK3R1 / Fold change vs veh, PIK3R1 / RFU, HNRNPA1 / Fold change vs veh, HNRNPA1 / RFU, RNF170 / Fold change vs veh, RNF170 / RFU, ZNF28 / Fold change vs veh, ZNF28 / RFU, RNGTT / Fold change vs veh, RNGTT / RFU, OGT / Fold change vs veh, OGT / RFU, BRD1 / Fold change vs veh, BRD1 / RFU, MARS / Fold change vs veh, MARS / RFU, ZNF655 / Fold change vs veh, ZNF655 / RFU, FAHD1 / Fold change vs veh, FAHD1 / RFU, BDP1 / Fold change vs veh, BDP1 / RFU, LRRCC1 / Fold change vs veh, LRRCC1 / RFU, ARID1A / Fold change vs veh, ARID1A / RFU, ZNF146 / Fold change vs veh, ZNF146 / RFU, ZNF330 / Fold change vs veh, ZNF330 / RFU, GPN3 / Fold change vs veh, GPN3 / RFU, C9orf123 / Fold change vs veh, C9orf123 / RFU, N4BP2L2 / Fold change vs veh, N4BP2L2 / RFU, ARFIP1 / Fold change vs veh, ARFIP1 / RFU, FAM179B / Fold change vs veh, FAM179B / RFU, BCL10 / Fold change vs veh, BCL10 / RFU, UHRF1BP1L / Fold change vs veh, UHRF1BP1L / RFU, BET1 / Fold change vs veh, BET1 / RFU, CNOT2 / Fold change vs veh, CNOT2 / RFU, ZNF268 / Fold change vs veh, ZNF268 / Fold change vs veh, ZNF507 / RFU, DGCR2 / Fold change vs veh, DGCR2 / RFU, WDSUB1 / Fold change vs veh, WDSUB1 / Fold change vs veh, HSP90B1 /// MIR3652 / RFU, ADSS / Fold change vs veh, ADSS / RFU, GK / Fold change vs veh, GK / RFU, ZNF148 / Fold change vs veh, ZNF148 / RFU, TAF9 / Fold change vs veh, TAF9 / RFU, SLC1A5 / Fold change vs veh, SLC1A5 / RFU, SLMO2 / Fold change vs veh, SLMO2 / RFU, ABCC4 / Fold change vs veh, ABCC4 / RFU, LOC101060439 /// RAP1B / Fold change vs veh, LOC101060439 /// RAP1B / RFU, RFX7 / Fold change vs veh, RFX7 / RFU, GTPBP10 / Fold change vs veh, GTPBP10 / RFU, CNEP1R1 / Fold change vs veh, CNEP1R1 / RFU, BIVM-ERCC5 /// ERCC5 / Fold change vs veh, BIVM-ERCC5 /// ERCC5 / RFU, ILF3 / Fold change vs veh, ILF3 / RFU 11762660_at / Fold change /veh 11762660_at / RFU VCAN (11757783_s_at) / Fold change /veh VCAN (11757783_s_at) / RFU DDX43 (11728927_at) / Fold change /veh DDX43 (11728927_at) / RFU KRT8 (11758188_x_at) / Fold change /veh KRT8 (11758188_x_at) / RFU NKD1 (11759106_at) / Fold change /veh NKD1 (11759106_at) / RFU SRD5A1 (11742802_a_at) / Fold change /veh SRD5A1 (11742802_a_at) / RFU TPSAB1 /// TPSB2 (11721975_s_at) / Fold change /veh TPSAB1 /// TPSB2 (11721975_s_at) / RFU GSTM3 (11746129_a_at) / Fold change /veh GSTM3 (11746129_a_at) / RFU IL23R (11737362_x_at) / Fold change /veh IL23R (11737362_x_at) / RFU TMEM51 (11727254_a_at) / Fold change /veh TMEM51 (11727254_a_at) / RFU PIWIL2 (11732686_x_at) / Fold change /veh PIWIL2 (11732686_x_at) / RFU ORM1 (11744905_x_at) / Fold change /veh ORM1 (11744905_x_at) / RFU CCDC152 (11743942_at) / Fold change /veh CCDC152 (11743942_at) / RFU ECM1 (11717891_a_at) / Fold change /veh ECM1 (11717891_a_at) / RFU IL23R (11748794_a_at) / Fold change /veh IL23R (11748794_a_at) / RFU TNFAIP8L3 (11732012_x_at) / Fold change /veh TNFAIP8L3 (11732012_x_at) / RFU MBOAT4 (11741988_at) / Fold change /veh MBOAT4 (11741988_at) / RFU 11764193_at / Fold change /veh 11764193_at / RFU TMEM53 (11763286_at) / Fold change /veh TMEM53 (11763286_at) / RFU MAGEB2 (11727129_at) / Fold change /veh MAGEB2 (11727129_at) / RFU TMEM200A (11744735_a_at) / Fold change /veh TMEM200A (11744735_a_at) / RFU CCDC152 (11751479_a_at) / Fold change /veh CCDC152 (11751479_a_at) / RFU FAM211A (11726209_a_at) / Fold change /veh FAM211A (11726209_a_at) / RFU RGS16 (11746705_a_at) / Fold change /veh RGS16 (11746705_a_at) / RFU VCAN (11755009_s_at) / Fold change /veh VCAN (11755009_s_at) / RFU RHOB (11743442_s_at) / Fold change /veh RHOB (11743442_s_at) / RFU RGS16 (11720943_a_at) / Fold change /veh RGS16 (11720943_a_at) / RFU RGS16 (11720944_at) / Fold change /veh RGS16 (11720944_at) / RFU, VPS4B / Fold change vs veh, VPS4B / RFU, CREB1 / Fold change vs veh, CREB1 / RFU, DNAJC13 / Fold change vs veh, DNAJC13 / RFU, GNAQ / Fold change vs veh, GNAQ / RFU, CDK5R1 / Fold change vs veh, CDK5R1 / RFU, ZRANB3 / Fold change vs veh, ZRANB3 / RFU, CUL4A / Fold change vs veh, CUL4A / RFU, CCNY / Fold change vs veh, CCNY / RFU, UFL1 / Fold change vs veh, UFL1 / RFU, COG3 / Fold change vs veh, COG3 / RFU, DIAPH2 / Fold change vs veh, DIAPH2 / RFU, SKA2 / Fold change vs veh, SKA2 / RFU, AFF3 / Fold change vs veh, AFF3 / RFU, LMF1 / Fold change vs veh, LMF1 / RFU, IPO11 / Fold change vs veh, IPO11 / RFU, DFFB / Fold change vs veh, DFFB / RFU, FOXP1 / Fold change vs veh, FOXP1 / RFU, CARD8 / Fold change vs veh, CARD8 / RFU, STRN3 / Fold change vs veh, STRN3 / RFU, ADK / Fold change vs veh, ADK / RFU, RASSF2 / Fold change vs veh, RASSF2 / RFU, WIPF1 / Fold change vs veh, WIPF1 / RFU, LARP1B / Fold change vs veh, LARP1B / RFU, RASA1 / Fold change vs veh, RASA1 / RFU, RB1 / Fold change vs veh, RB1 / RFU, PPFIA1 / Fold change vs veh, PPFIA1 / RFU, MAT2A / Fold change vs veh, MAT2A / RFU, CCT5 / Fold change vs veh, CCT5 / RFU, WDR92 / Fold change vs veh, WDR92 / RFU, CUX1 / Fold change vs veh, CUX1 / RFU, TTC7A / Fold change vs veh, TTC7A / RFU, TMEM135 / Fold change vs veh, TMEM135 / RFU, DEPTOR / Fold change vs veh, DEPTOR / RFU, CPM / Fold change vs veh, CPM / RFU, DNAJB6 / Fold change vs veh, DNAJB6 / RFU, CACNA2D3 / Fold change vs veh, CACNA2D3 / RFU, DTX4 / Fold change vs veh, DTX4 / RFU, TFCP2 / Fold change vs veh, TFCP2 / RFU, GMCL1 /// GMCL1P1 / Fold change vs veh, GMCL1 /// GMCL1P1 / RFU, AEBP2 / Fold change vs veh, AEBP2 / RFU, SNHG1 /// SNORD22 /// SNORD25 /// SNORD26 /// SNORD27 /// SNORD28 /// SNORD29 /// SNORD31 / Fold change vs veh, SNHG1 /// SNORD22 /// SNORD25 /// SNORD26 /// SNORD27 /// SNORD28 /// SNORD29 /// SNORD31 / Fold change (Aza/veh), C12orf56 (ProbeSet 11735607_a_at) / Fold change (ACY-1035/veh), C12orf56 (ProbeSet 11735607_a_at) / Fold change (Aza/veh), FGFR1OP (ProbeSet 11751329_s_at) / Fold change (ACY-1035/veh), FGFR1OP (ProbeSet 11751329_s_at) / Fold change (Aza/veh), VPS36 (ProbeSet 11739960_a_at) / Fold change (ACY-1035/veh), VPS36 (ProbeSet 11739960_a_at) / RFU SYPL1 (11715823_x_at) / Fold change /veh SYPL1 (11715823_x_at) / RFU IGFBP7 (11715501_s_at) / Fold change /veh IGFBP7 (11715501_s_at) / RFU REEP3 (11722064_at) / Fold change /veh REEP3 (11722064_at) / RFU IGLL1 (11728026_x_at) / Fold change /veh IGLL1 (11728026_x_at): dose or concentration left out as unconfirmed
Conditions: MV-4-11 cells, 48 hours

## Nc1ncn([C@@H]2O[C@H](CO)[C@@H](O)[C@H]2O)c(=O)n1 [azacitidine]
  Fold change /veh ARHGAP8 /// PRR5-ARHGAP8 (11727945_x_at): 0.99
